Among the data in BindingDB's records for doi:10.1021/jm00060a014 (Upjohn Laboratories, 1993) are Ki values, retold here.

Structures are written as SMILES.

This assay is described as follows: Binding affinity against [3H]8-OH-DPAT-labeled 5-hydroxytryptamine 1A receptor sites in bovine hippocampus.

The Ki is a measure of affinity in units of concentration, obtained from inhibition or displacement. A lower Ki goes with a stronger hold on the target. `CCCN1CCC2c3c(cccc3OC)CCC21` (stereo not drawn) [9-Methoxy-3-propyl-2,3,3a,4,5,9b-hexahydro-1H-benzo[e]indole] returned a Ki of 0.0044 µM.

`CCCN1CCC2c3c(cccc3OC)CC[C@@H]21` (stereo partly drawn) [9-Methoxy-3-propyl-2,3,3a,4,5,9b-hexahydro-1H-benzo[e]indole] gave a Ki of 0.186 µM.

For `COc1cccc2c1CC[C@@H]1[C@H]2CCN1CC1CC1` [(3aR,9bS)-3-Cyclopropylmethyl-6-methoxy-2,3,3a,4,5,9b-hexahydro-1H-benzo[e]indole], the inhibition constant Ki was over 1 µM.
